Publication PMC8250858, “A Systematic Study of the Stability, Safety, and Efficacy of the de novo Designed Antimicrobial Peptide PepD2 and Its Modified Derivatives Against Acinetobacter baumannii” (Frontiers in Microbiology, 2021)
Where two headings read alike, the source gives them in different places.

Key:
HEK293 cells = assay type: cell-based, human
Description: Cell viability assays were performed by using the CellTiter 96® AQueous Non-Radioactive Cell Proliferation Assay (Promega, United States), in which 3-(4,5-dimethylthiazol-2-yl)-5-(3-carboxymethoxyphenyl)-2-(4-sulfophenyl)-2H-tetrazolium salt (MTS) can be reduced to purple-colored formazan by intact cells. […] The test peptide was dissolved in water and filtered through a 0.2-μm filter. The peptide concentration was quantitated by the UV280 to make a 5,120 μg/mL stock solution and then serially diluted in serum-free DMEM. On the second day, the medium was replaced with 100 μL of serum-free DMEM containing different peptide concentrations and incubated for 1 or 24 h. Serum-free DMEM without peptide was used as a negative control and medium containing 1% Triton X-100 was used as a positive control. One milligram of MTS powder was dissolved in 0.5 mL of Dulbecco’s phosphate-buffered saline (DPBS). The MTS solution was mixed with one-twentieth of a phenazine methosulfate (PMS) solution ([…]). To each well, 20 μL of the MTS/PMS solution was added. After 3 h, the absorbance was measured with an Infinite M1000 pro (Tecan Austria GmbH, Austria) at a wavelength of 490 nm. Cell viability was calculated using the following equation. Cellviability=[(A-Ap)/(An-Ap)]×100% A is the UV490 of the peptide-treated sample An is the UV490 of the sample without peptide (negative control) Ap is the UV490 of the Triton-treated sample (positive control)

Hemolytic assay = assay type: cell-based, rat; conditions: rat red blood cells, 256 μg/mL peptide, 37°C 45 min; read-out: Hemolysis (%) at 256 μg/mL
Description: The blood cells were washed three times with PBS, where the volume of PBS was the same as that of the original blood, by gently turning the centrifuge tube upside down. After washing, ten microliters of blood cells were diluted 2,000-fold in PBS to count the cells. Finally, red blood cells were diluted to 5 × 10^8 cells/mL in PBS. Peptides were dissolved in water and filtered through a 0.2-μm filter to make a stock solution. The peptide concentration was quantitated by the UV280. The peptide solution was diluted in PBS to different concentrations (five times the tested concentrations). Twenty microliters of the peptide in PBS was mixed with 80 μL of red blood cell solution in a 96-well plate (V-bottom). The final peptide concentration was 16–256 μg/mL. In the positive control group, 20 μL of 5% Triton X-100 was added to the red blood cell solution for a final Triton X-100 concentration of 1%. For the negative control group, 20 μL of PBS solution was added. The 96-well plate was incubated at 37°C for 45 min. After centrifuging the 96-well plate at 1,500 × g for 5 min, 30 μL of the supernatant was mixed with 100 μL of deionized water in a 96-well plate (flat bottom). The concentration of heme in each well was measured by the UV405 using an Infinite M1000 pro (Tecan Austria GmbH, Austria). The hemolytic activity was calculated using the following formula. Hemolyticactivity=[(F-F0)/(Ft-F0)]×100% F is the UV405 of the peptide-treated sample F0 is the UV405 of the sample without peptide (negative control) Ft is the UV405 of the Triton-treated sample (positive control)

A. baumannii ATCC 17978 = assay type: cell-based, Acinetobacter baumannii; conditions: spotted on MHA plate, 24 h
Description: Following CLSI guideline M07-A11, single bacterial colonies of A. baumannii ATCC 17978 grown on Müller–Hinton agar (MHA) plates were picked and inoculated in 4 mL of Müller–Hinton broth (MHB) at 37°C and shaken at 180 rpm for 4∼6 h. The bacterial broth was diluted in the same medium to give a cell density of 1∼2 × 10^8 CFU/mL (OD600 = 0.38∼0.4 for A. baumannii) (Supplementary Figure 1; [Dillon et al., 2020]). Then, the broth was diluted 20-fold. Peptides were dissolved in water and filtered through a 0.2-μm filter to make a stock solution. The peptide concentration was quantified by the UV280. Then, the peptide solution was serially diluted in MHB to final peptide concentrations of 1, 2, 4, 8, 16, and 32 μg/mL. One hundred microliters of serially diluted peptide and 10 μL of bacterial culture were mixed in a 96-well polystyrene plate. Each well contained approximately 5 × 10^5 CFU/mL. The positive control was a mixture of 100 μL of MHB and 10 μL of the bacterial culture. The negative control was 110 μL of MHB. The plates were incubated at 37°C without shaking. […] The bacterium-peptide mixtures (the mixture without visible growth and the mixture containing a two-fold […] peptide concentration than the mixture without growth), positive control, and negative control (3 μL each) were spotted on an MHA plate and incubated at 37°C for 24 h. The MBC was determined as the lowest peptide concentration at which no colonies formed.
The MIC and MBC of our designed peptides against A. baumannii were obtained by using the broth microdilution method in the CLSI protocol. The bacterial cell number was carefully counted, and a final cell density of 5 × 10^5 CFU/mL in each well was used in the MIC test (Supplementary Figure 1). The minimal peptide concentration at which no bacterial growth was observed was taken as the MIC value. The culture after peptide treatment was spotted on an MHA plate, and the peptide concentration that could kill all the bacteria was defined as the MBC. The MIC/MBC and hemolytic activity of these peptides are shown and compared in Figure 1.

in vitro = in vitro ADME, rat; conditions: rat, plasma, rat plasma, room temperature
Description: EDTA-treated rat whole blood was centrifuged at 4°C and 840 × g for 5 min, and then the blood cells were removed ([[…] et al., 2019]). The supernatant was placed in an Eppendorf tube and centrifuged at 4°C and 13,000 rpm for 10 min to remove lipids (white precipitate). The supernatant was filtered through a 0.2-μm filter. The peptide was dissolved in water and filtered through a 0.2-μm filter. The peptide concentration was quantified by the UV280 to make a 1 mg/mL stock solution. […] At the indicated time, the peptide was analyzed by HPLC with a C18 column using a linear gradient of 20-65% B over 15 min. Solution A: 5% acetonitrile plus 0.1% trifluoroacetic acid in water; solution B: 0.1% trifluoroacetic acid in acetonitrile.

Ac-WKKIKKIIKKIKKI-NH2 [pepI2]
HEK293 IC50 (HEK293 cells; 1 h): 68.5 µg/mL
HEK293 IC50 (HEK293 cells; 24 h): 66.8 µg/mL
hemolysis at 45 min, 256 μg/mL (Hemolytic assay): 0.27%
MBC A. baumannii 17978 (A. baumannii ATCC 17978): 4 µg/mL
half-life at 0.6 mg/mL (in vitro): 11.2 h
